Test results taken from patent publication US9974931B2, “Pharmaceutical-coated medical products, the production thereof and the use thereof” (Invatec Technology Center Gmbh, priority 2007, dated 2018).

Assays:
[1] = system: overstretched coronary arteries in pigs; experiment: Efficacy and tolerance of coated balloon catheters with stent implantation, quantitative angiography after 4 weeks; format: in vivo; conditions: pig coronary artery, n = 8; for Late lumen loss: within 4 weeks
Text: The efficacy and tolerance of coated balloon catheters according to example 5 in overstretched coronary arteries in pigs
Method: Scheller B, Speck U, Abramjuk C, Bernhardt U, Böhm M, Nickenig G: Paclitaxel balloon coating—a novel method for prevention and therapy of restenosis. Circulation 2004; 110: 810-4
Stents were implanted into pigs with the help of methotrexate coated or uncoated (control) balloon catheters. After 4 weeks the extent of the constriction of the lumen in the area of the stent was measured using quantitative angiography.
The late lumen loss means the amount by which the original coronary artery lumen diameter decreases due to excessive cell growth within 4 weeks. With blood flowing through them the original coronary artery lumen diameters were 2.64 mm and 2.41 mm respectively. In the control group (no methotrexate) the late lumen loss was 1.1 mm and in the group treated with methotrexate the late lumen loss was 0.67 mm.

[2] = Coating of balloon catheters with methotrexate: content of active substance; format: physicochemical; conditions: balloons 3.5 to 19 mm; 2×16 μl coating plus additional coat with Ultravist-370 + HES + methotrexate
Experimental: 30 mg methotrexic acid+100 μl sodium bicarbonate (7.5%)+900 μl methanol (coating with 2×16 μl, corresponding to ˜4 μg/mm^2 balloon surface)
Additional coat: Ultravist®-370+hydroxyethyl starch (HES) 10% (1:1 by volume)+30 mg methotrexate/ml applied by immersing for a short time
Stents: stainless steel, balloon-expandable 3.5 to 18 mm
Content of active substance: 5.3 μg/mm^2 balloon surface

[3] = Loss of the active substance during expansion in the dry state (adhesion test); format: physicochemical
Text: The active substance can, for example, be released in the form of particles and can then become effective by dissolution in the course of a longer period of time; • Low molecular weight: Substances with a molecular weight less than 5000 Da, and preferably <2000 Da, and particularly preferred <1000 Da; • Hydrophilic/hydrophilised balloon membrane: hydrophilic membranes consisting of materials which can be wetted with water or with hydrophilic solvents; hydrophilised membranes are membranes made out nylon, for example, whose surfaces were changed by subsequent treatment into a state that can be wetted with water or other hydrophilic solvents. • Hydrophilic or hydrophilised membranes are not to be confused with membranes which are provided with an additional hydrophilic layer; • Hydrophilically-coated balloon membrane: A membrane, which contains an additionally applied layer, which can itself be wetted with water; • Open on the surface: Pharmaceuticals or additives which are not incorporated into the balloon membrane or which are not incorporated into any layers that are firmly attached to the balloon membrane. For example, they are not incorporated in any polymeric water-insoluble coatings particularly any hydrogels that may not become detached. […] The balloons are expanded when dry and shaken for 5 seconds in a glass vessel. More than 75% of the dose remains on the balloon; • Highly volatile: Solvents with a boiling point below 300° C., and preferably below 160° C., with below 100° C. being particularly preferred.
Each balloon was coated in the folded state with 3 to 4 μg/mm^2 paclitaxel and was tested for loss of the active substance during expansion in the dry state as defined under ‘Definitions’.

[4] = Coating of hydrophilic and non-hydrophilic balloon catheters with paclitaxel by immersion: paclitaxel content on balloon; format: physicochemical; conditions: 4 immersions, 30 mg paclitaxel/ml
Experimental: Coating solution: 30 mg paclitaxel/ml in acetone 89%, ethanol 9%, Ultravist®-370 (Schering AG, Berlin) 2%, by immersing it 4 times and allowing it to dry between each immersion: […]

Content of active substance [2] | loss of the active substance during expansion in the dry state ([3]; series 1, coating solvent Acetic acid) | loss of the active substance during expansion in the dry state ([3]; series 1, coating solvent Acetone, 3 to 4 μg/mm^2, folded) | loss of the active substance during expansion in the dry state ([3]; series 1, coating solvent Dimethylformamide) | loss of the active substance during expansion in the dry state ([3]; series 1, coating solvent Dimethylsulfoxide) | loss of the active substance during expansion in the dry state ([3]; series 1, coating solvent Dioxane) | loss of the active substance during expansion in the dry state ([3]; series 1, coating solvent Isopropanol) | loss of the active substance during expansion in the dry state ([3]; series 1, coating solvent Tetrahydrofuran) | loss of the active substance during expansion in the dry state ([3]; series 2, Tetrahydrofuran with 10% water by volume) | loss of the active substance during expansion in the dry state ([3]; series 2, Tetrahydrofuran with 20% water by volume) | loss of the active substance during expansion in the dry state ([3]; series 2, Tetrahydrofuran with 37% water by volume) | loss of the active substance during expansion in the dry state ([3]; series 2, coating solvent Tetrahydrofuran) | μg paclitaxel/mm^2 balloon surface ([4]; hydrophilic catheter, 3.5 to 15 mm, 5 balloon catheters) | μg paclitaxel/mm^2 balloon surface ([4]; hydrophilic catheter, 3.5 to 20 mm, 8 balloon catheters) | μg paclitaxel/mm^2 balloon surface ([4]; standard catheter, 3.5 to 15 mm, 5 balloon catheters) | μg paclitaxel/mm^2 balloon surface ([4]; standard catheter, 3.5 to 20 mm, 8 balloon catheters) | Structure (SMILES) | Minimum vessel diameter 28d ([1]; 28 d) | Late lumen loss [1] | Late lumen loss ([1]; listed as methotrexate)
5.3 μg/mm^2 balloon surface |  |  |  |  |  |  |  |  |  |  |  |  |  |  |  | CN(Cc1cnc2nc(N)nc(N)c2n1)c1ccc(C(=O)N[C@@H](CCC(=O)O)C(=O)O)cc1 [Methotrexate, methotrexate] | 1.74 ± 0.41 mm | 0.67 ± 0.39 mm | 0.67 mm
 | 4% | 21% | 24% | 66% | 12% | 19% | 4% | 3% | 16% | 37% | 3% | 2.8 μg/mm^2 | 5.6 μg/mm^2 | 3.4 μg/mm^2 | 5.0 μg/mm^2 | CC(=O)O[C@H]1C(=O)[C@@]2(C)[C@H]([C@H](OC(=O)c3ccccc3)[C@]3(O)C[C@H](OC(=O)[C@H](O)[C@@H](NC(=O)c4ccccc4)c4ccccc4)C(C)=C1C3(C)C)[C@]1(OC(C)=O)CO[C@@H]1C[C@@H]2O [paclitaxel] |  |  | 
